Test results reported in PubChem BioAssay (NCI).
Values joined by “and” are separate entries in the source; they are usually repeats but may differ in a detail not shown here. Identical values can stand only once.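 48-hour exposure; five concentrations; linearly interpolated endpoints. GI50 is the concentration that inhibits growth by half. At the TGI there is no net growth.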

What was measured:
Assay in all cases: NCI anticancer screen, dose series, 48 h
HOP-92 NSCLC = system: HOP-92 NSCLC
LOX IMVI melanoma = system: LOX IMVI melanoma
HOP-62 NSCLC = system: HOP-62 NSCLC
OVCAR-4 ovarian = system: OVCAR-4 ovarian
RXF 393 renal = system: RXF 393 renal
K-562 leukemia = system: K-562 leukemia
SF-295 CNS = system: SF-295 CNS
786-0 renal = system: 786-0 renal
SF-539 CNS = system: SF-539 CNS
NCI/ADR-RES ovarian = system: NCI/ADR-RES ovarian

| Compound | GI50 (HOP-92 NSCLC) | TGI (HOP-92 NSCLC) | GI50 (LOX IMVI melanoma) | TGI (LOX IMVI melanoma) | GI50 (HOP-62 NSCLC) | TGI (HOP-62 NSCLC) | GI50 (OVCAR-4 ovarian) | TGI (OVCAR-4 ovarian) | GI50 (RXF 393 renal) | TGI (RXF 393 renal) | GI50 (K-562 leukemia) | TGI (K-562 leukemia) [µM] | GI50 (SF-295 CNS) | TGI (SF-295 CNS) | GI50 (786-0 renal) | TGI (786-0 renal) | GI50 (SF-539 CNS) | TGI (SF-539 CNS) | GI50 (NCI/ADR-RES ovarian) | TGI (NCI/ADR-RES ovarian) |
| --- | --- | --- | --- | --- | --- | --- | --- | --- | --- | --- | --- | --- | --- | --- | --- | --- | --- | --- | --- | --- |
| CCOC(=O)Nc1nc2ccccc2[nH]1 | > 100 µM | > 100 µM | 7.1 µM and 6.82 µM | > 100 µM | 6.08 µM and > 22.9 µM | > 100 µM | 28.8 µM and 60.6 µM | > 100 µM | 3.89 µM | 43.6 µM | 3.48 µM and 1.85 µM | > 100 | 4.32 µM and 5.57 µM | > 100 µM | 7.37 µM | > 100 µM | 2.63 µM and 2.92 µM | 9.69 µM and > 32.1 µM | 3.55 µM and 3.47 µM | 35.3 µM and > 25.9 µM |
| Cc1cc(C(=O)Nc2n[nH]c3ccccc23)n[nH]1 | > 100 µM | > 100 µM | > 100 µM | > 100 µM | > 100 µM | > 100 µM | > 100 µM | > 100 µM | > 100 µM | > 100 µM | > 100 µM | > 100 | > 100 µM | > 100 µM | > 100 µM | > 100 µM | > 100 µM | > 100 µM | > 100 µM | > 100 µM |
| CN1CCN(c2ccc(OC(F)(F)F)c(Nc3ncc4c(n3)-c3c(c(C(N)=O)nn3CCO)CC4)c2)CC1 | 0.545 µM and 0.242 µM | 14.3 µM and > 3.62 µM | 0.0372 µM and 0.0519 µM | 16.1 µM and > 3.87 µM | 0.0723 µM and 0.0547 µM | 27.1 µM and > 10 µM | 6.92 µM and 1.39 µM | 41.2 µM and > 10 µM | 0.398 µM and 0.102 µM | 21 µM and > 10 µM | 0.0375 µM and 0.0269 µM | 19.6 | 0.0575 µM and 0.244 µM | 18.6 µM and > 10 µM | 0.428 µM and 0.466 µM | 32.4 µM and > 10 µM | 0.0363 µM and 0.0682 µM | 12.4 µM and > 4.8 µM | 1.19 µM and 1.04 µM | > 62.6 µM |
| O=C(Nc1cccc(-n2cc(-c3ccncc3)c(-c3ccc(O)c(Cl)c3)n2)c1)c1ccc2c(c1)OCCO2 | 2.26 µM | > 100 µM | 4.77 µM | > 100 µM | > 100 µM | > 100 µM | > 100 µM | > 100 µM | 3.02 µM | > 100 µM | 4.26 µM | > 100 | 4.88 µM | > 100 µM | 3.27 µM | > 100 µM | 6.63 µM | > 100 µM | 5.7 µM | > 100 µM |
| O=C1/C=C/[C@@H](O)[C@@H]2C[C@@H](O)C[C@H]2/C=C/CCC[C@H](CCc2ccc3ncccc3c2)O1 | 2.77 µM | > 100 µM | 0.152 µM | 0.333 µM | 0.317 µM | – | 0.253 µM | – | 0.0945 µM | 0.419 µM | 0.386 µM | > 100 | 0.351 µM | > 100 µM | 0.218 µM | 0.504 µM | 0.495 µM | > 100 µM | 0.396 µM | 9.05 µM |
| COc1cccc(-c2nn(-c3ccccc3)cc2-c2ccnc(NCCCNC(=O)c3cccc(C(F)(F)F)c3)c2)c1 | 2.48 µM | 17.4 µM | 4.55 µM | 18.3 µM | 10.3 µM | 30.6 µM | 4.22 µM | 32.2 µM | 2.2 µM | 7.52 µM | 3.69 µM | 31.3 | 3.32 µM | 13.9 µM | 3.75 µM | 15.1 µM | 2.92 µM | 8.29 µM | 3.54 µM | 16.8 µM |
| Nc1nonc1-c1nc2ccccc2n1Cc1ccc(F)cc1 | 4.04 µM | 36.7 µM | 6.48 µM | > 100 µM | 14.6 µM | > 100 µM | > 100 µM | > 100 µM | 4.42 µM | > 100 µM | 4.37 µM | > 100 | 13.1 µM | > 100 µM | 29.1 µM | > 100 µM | 8.14 µM | > 100 µM | 4.16 µM | > 100 µM |
| Cc1ccc(C(=O)c2sc3nc4c(cc3c2N)CCCC4)c(C)c1 | 3.36 µM | 87.6 µM | 0.502 µM | > 100 µM | 0.465 µM | > 100 µM | 1.97 µM | > 100 µM | 0.328 µM | 2.31 µM | 0.0934 µM | > 100 | 0.291 µM | 98.9 µM | 0.617 µM | > 100 µM | 0.25 µM | 0.956 µM | 0.239 µM | > 100 µM |
| CC1=C(/C=C/C(=O)CC(=O)/C=C/C2=C(C)CCCC2(C)C)C(C)(C)CCC1 | 28 µM | > 100 µM | 18.5 µM | 81 µM | 32.3 µM | > 100 µM | 21.7 µM | > 100 µM | 4.38 µM | 16 µM | 18.7 µM | > 100 | 15.6 µM | 54.4 µM | 25.2 µM | > 100 µM | 26 µM | > 100 µM | 31.4 µM | > 100 µM |
| O=C1CC[C@H](N2Cc3c(OCc4ccc(CN5CCOCC5)cc4)cccc3C2=O)C(=O)N1 | > 100 µM | > 100 µM | > 100 µM | > 100 µM | > 100 µM | > 100 µM | > 100 µM | > 100 µM | > 100 µM | > 100 µM | > 100 µM | > 100 | > 100 µM | > 100 µM | > 100 µM | > 100 µM | > 100 µM | > 100 µM | > 100 µM | > 100 µM |
| O=C(O)c1cc2ccccc2c2c3c(ccc12)OCO3 | 18.7 µM | 96.5 µM | 223 µM | 766 µM | 176 µM | 697 µM | 170 µM | 808 µM | 146 µM | 342 µM | 259 µM | > 1000 | 157 µM | 618 µM | 273 µM | 936 µM | 132 µM | 337 µM | 210 µM | 754 µM |
| CCCCCCCCCC[C@@H](O)[C@@H]1CC[C@@H]([C@@H]2CC[C@@H]([C@@H](O)CCCCCCCCCC[C@H](O)CC3=CC(C)OC3=O)O2)O1 (stereo partly drawn) | 10.3 µM | 8.09 µM and 33.8 µM | 4.26 µM | – | 4.27 µM | 15.4 µM | – | > 51.4 µM | – | 9.8 µM | 2.94 µM | > 100 | 0.686 µM | > 100 µM | 2.49 µM | 7.95 µM and 12.1 µM | – | 9.39 µM and 13.3 µM | – | 5.34 µM and 35.8 µM |
